# Laboratory results as given in patent US20220193120A1, “MOLECULAR HYDROGEN-CONTAINING COMPOSITION FOR MAINTAINING LUNG FUNCTION IN HUMAN LUNG CANCER AND/OR IMPROVING REDUCTION IN LUNG FUNCTION ATTRIBUTED TO HUMAN LUNG CANCER” (MiZ Company Limited, priority 2020, published 2022).
# Where two headings read alike, the source gives them in different places.
# What was measured:
# [1] = room temperature, normal pressure; also printed as 1.6 mg/L; cited from earlier work
# [2] = tested on: lung function of subject having lung cancer; conditions: one month from start of inhalation, hydrogen about 1% to 2%, 3 to 6 hours per day
# Protocol: A person had surgery of colorectal cancer in 2018. Thereafter, the person was periodically examined for follow-up. […] From the day of examination, the person was treated with hydrogen gas inhalation for 3 to 6 hours per day using a hydrogen gas generator (Jobs-mini, hydrogen concentration: about 1% to 2%, the amount of 100% hydrogen to be generated: 30 ml/min).
# [3] = tested on: lung function of subject having lung cancer
# Protocol: On Oct. 21, 2020, inhalation of the hydrogen gas was started using a hydrogen gas generator (Jobs-α, hydrogen concentration: about 4% to 5%, the amount of 100% hydrogen to be generated: 200 ml/min) manufactured by MiZ Company Limited (Ofuna, Kamakura). […]
# Lewis Lung Carcinoma = conditions: inhalation of low concentration (3.5%) hydrogen; Japanese Patent No. 6781485, Example 1; cited from earlier work
# [4] = Week 2, hydrogen about 4% to 5%, at least 3 hours per day
# [5] = Week 3, hydrogen about 4% to 5%, at least 3 hours per day
smiles,measurement,setting,value
"[HH] [hydrogen gas, molecular hydrogen]",concentration of hydrogen dissolved in water,[1],approximately 1.6 ppm
same,breathing function,[2],normal values again
same,lung capacity,[2],normal values again
same,tumor markers,[2],normal numeric values again
same,lung cancer at pre-surgery examination,[2]; person,disappeared
same,tolerability of hydrogen gas inhalation,"[3]; Week 1, inhalation 5 hours per day, hydrogen concentration about 4% to 5%, person stage IV lung cancer",inhaled comfortably with no discomfort
same,amount of oxygen needed for oxygen inhalation,[3]; [4],reduced
same,breathing,[3]; [4],became easier
same,lung X-ray image change,[3]; [4],any significant change was not observed
same,state of breathing,[3]; [4],became better
same,amount of oxygen needed for oxygen inhalation,[3]; [5],reduced compared to that in the previous week
same,complicating inflammation reaction such as colitis,[3]; [5],improved
same,lung ventilatory function (doctors' determination from CT image and oxygen needed),[3]; [5],improved compared to that one month ago
same,shadows derived from pneumonia in chest CT image,[3]; [5],completely disappeared
same,metastasis,Lewis Lung Carcinoma,suppressed
